Here are results for 42 compounds from patent publication US20260015357A1, “MODULATORS OF NLRP3 INFLAMMASOME AND RELATED PRODUCTS AND METHODS” (Neumora Therapeutics, Inc., priority 2022, published 2026).

The target of one experiment is T1, NLRP3 inflammasome (Homo sapiens, UniProt Q96P20).
T1 construct: host or cells: THP1 human acute monocytic leukemia cells, PMA-differentiated, LPS-primed
Description: NLRP3 inflammasome activation in LPS-primed, nigericin-activated THP1 macrophages, IL-1β AlphaLISA. The class given is cell-based. The settings on record: PMA-differentiated, 1 hr compound, Nigericin 6.7 uM 3 hrs, IL-1β in supernatant. The protocol:
(§1) NLRP3 Inflammasome Activation and Cell Viability Assessment in THP1 Macrophages
(§2) THP1—Human acute monocytic leukemia cells were cultured (ATCC, cat #TIB-202) in Gibco RPMI-1640 medium (ThermoFisher cat #72400054) supplemented with 10% Heat Inactivated FBS at density between 3-8×10^5 viable cells/mi. The cells were then subcultured when the cell concentration reached 8×10^5 cells/mL (every 2-3 days).
(§3) The parameter wells were filled with 50 ul PBS and incubated at 37° C., 5% CO2 for 48 hrs.
(§4) After 48 hrs incubation, the PMA containing media was removed, and changed for 40 ul/well of fresh DMEM, 10% FBS, 1× GlutaMax and incubated at 37° C., 5% CO2 for 24 hrs.
(§5) The following day the cells were primed with LPS (E. coli) (Sigma, cat #L3129) […] in DMEM, 10% FBS, 1× GlutaMax for 3 hrs at 37° C., 5% CO2.
(§6) Following the LPS priming step, the cells were treated with compounds at 10 uM top final concentration, 1:4 dilution, 8 times: (10 uM, 2.5 uM, 0.625 uM, 0.156 uM, 0.039 uM, 0.0097 uM, 0.0024 uM, 0.0006 uM). DMSO was used as a vehicle control, and MCC950 (InvivoGen, cat #inh-mcc) was used at 1 uM as a positive control, and incubated for 1 hrs at 37° C., 5% CO2.
(§7) Following the 1 hr compound incubation, the NLRP3 inflammasome activation step was conducted by treating cells with Nigericin (InvivoGen, cat #tlrl-nig) at 6.7 uM final concentration for 3 hrs at 37° C., 5% CO2.
(§8) Thereafter, 30 ul samples of cells' supernatants were collected for cytokine analysis which was conducted on Hu IL-1β AlphaLISA (Perkin Elmer, cat #AL220C) and Hu IL-6 AlphaLISA (Perkin Elmer, cat #AL220C). The cells' viability was assessed by performing CellTiter-Glo Luminescent Assay (Promega, cat #G7572) according to the manufacturer's protocol.

The subject of another experiment is IL-6. The experiment is described as follows: IL-6 in supernatants of LPS-primed, nigericin-treated THP1 macrophages, Hu IL-6 AlphaLISA. The class given is cell-based. Conditions: Homo sapiens, THP-1, PMA-differentiated, 1 hr compound, Nigericin 6.7 uM 3 hrs, IL-6 in supernatant. The protocol: as §1, §2, §3, §4, §5, §6, §7, §8
In general terms: Alpha assays give light when donor and acceptor beads are brought close together.

Each structure is given as a SMILES string.

T1 sequence (Q96P20 whole entry): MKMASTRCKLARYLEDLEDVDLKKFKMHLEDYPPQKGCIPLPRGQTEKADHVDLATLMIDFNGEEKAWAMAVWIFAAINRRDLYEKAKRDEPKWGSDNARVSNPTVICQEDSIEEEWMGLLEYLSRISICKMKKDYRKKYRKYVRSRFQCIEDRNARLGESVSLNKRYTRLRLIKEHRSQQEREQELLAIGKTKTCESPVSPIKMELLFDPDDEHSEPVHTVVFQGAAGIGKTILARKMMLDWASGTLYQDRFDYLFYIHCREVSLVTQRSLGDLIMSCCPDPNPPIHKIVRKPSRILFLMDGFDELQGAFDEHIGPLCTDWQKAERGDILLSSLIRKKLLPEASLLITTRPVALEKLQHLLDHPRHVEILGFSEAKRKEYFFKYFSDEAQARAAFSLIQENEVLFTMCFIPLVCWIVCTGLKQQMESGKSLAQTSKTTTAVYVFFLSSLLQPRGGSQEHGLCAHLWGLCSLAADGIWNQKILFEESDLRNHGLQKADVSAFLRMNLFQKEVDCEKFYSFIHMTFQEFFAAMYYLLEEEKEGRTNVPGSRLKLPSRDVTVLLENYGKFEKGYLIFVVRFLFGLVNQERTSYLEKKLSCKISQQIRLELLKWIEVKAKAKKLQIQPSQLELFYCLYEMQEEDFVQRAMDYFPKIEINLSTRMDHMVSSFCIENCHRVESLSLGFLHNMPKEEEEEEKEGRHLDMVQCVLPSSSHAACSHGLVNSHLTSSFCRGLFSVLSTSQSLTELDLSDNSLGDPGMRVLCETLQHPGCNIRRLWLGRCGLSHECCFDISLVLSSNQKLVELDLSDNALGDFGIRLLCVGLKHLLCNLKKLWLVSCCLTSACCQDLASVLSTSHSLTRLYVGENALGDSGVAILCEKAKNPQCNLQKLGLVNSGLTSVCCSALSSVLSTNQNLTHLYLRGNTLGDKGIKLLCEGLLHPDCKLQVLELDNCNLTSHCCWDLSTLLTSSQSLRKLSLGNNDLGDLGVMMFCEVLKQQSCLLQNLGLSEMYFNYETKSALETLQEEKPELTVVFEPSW

`CN1CCC[C@@H](Nc2nnc(-c3ccc(C(F)(F)F)cc3)c3cc[nH]c23)C1` (single isomer, unassigned) [Compound 1]: the figures for the IC50 at NLRP3 inflammasome and in the experiment with IL-6 were less than 10 nM and 1000 to 5000 nM, respectively.
In the case of `CN1CCC[C@@H](Nc2nnc(-c3ccc(C(F)(F)F)cc3)c3[nH]ccc23)C1` (single isomer, unassigned) [Compound 2], the IC50 (in general, the concentration at which inhibition is half-maximal) against NLRP3 inflammasome was 100 to 500 nM; in the experiment with IL-6, no less than 10000 nM.
Taken in the same sequence, the figures for `CN1CCC[C@@H](Nc2nnc(-c3ccccc3O)c3ccn(C)c23)C1` (single isomer, unassigned) [Compound 17] were 10 to 100 nM and no less than 10000 nM.
Take `CN1CCC[C@@H](N(C)c2nnc(-c3ccccc3O)c3cc[nH]c23)C1` (single isomer, unassigned) [Compound 24]: the IC50 fell in the range of 100 to 500 nM against NLRP3 inflammasome and 5000 to 10000 nM in the experiment on IL-6.
Taken in the same sequence, the figures for `CN1CCC[C@@H](Nc2nnc(-c3ccccc3O)c3c2ccn3C)C1` (single isomer, unassigned) [Compound 67] were 10 to 100 nM and no less than 10000 nM.
Taken in the same sequence, the figures for `CN1CCC[C@@H](N(C)c2nnc(-c3ccccc3O)c3[nH]ccc23)C1` (single isomer, unassigned) [Compound 68] were no less than 10000 nM and 5000 to 10000 nM.
Taken in the same sequence, the figures for `Cc1cc(C(F)(F)F)ccc1-c1nnc(N[C@@H]2CCCN(C)C2)c2cc[nH]c12` [Compound 3] were 500 to 1000 nM and no less than 10000 nM.
On to `CN1CCC[C@@H](Nc2nnc(-c3ccc(F)cc3O)c3cc[nH]c23)C1` [Compound 4], for which the IC50 on NLRP3 inflammasome is less than 10 nM; in the experiment with IL-6 it was 5000 to 10000 nM.
Taken in the same sequence, the figures for `CN1CCC[C@@H](Nc2nnc(-c3ccc(F)cc3)c3cc[nH]c23)C1` [Compound 5] were 10 to 100 nM and 1000 to 5000 nM.
Taken in the same sequence, the figures for `Cc1cc(C(F)(F)F)ccc1-c1nnc(N[C@@H]2CCCN(C)C2)c2[nH]ccc12` [Compound 6] were less than 10 nM and 5000 to 10000 nM.
Take `CN1CCC[C@@H](Nc2nnc(-c3ccc(F)cc3O)c3[nH]ccc23)C1` [Compound 7]: the IC50 is 100 to 500 nM on NLRP3 inflammasome and no less than 10000 nM with IL-6.
As to `CN1CCC[C@@H](Nc2nnc(-c3ccccc3O)c3[nH]ccc23)C1` [Compound 8], the results for the IC50 at NLRP3 inflammasome and with IL-6 were 100 to 500 nM and no less than 10000 nM, respectively.
As for `CN1CCC[C@@H](Nc2nnc(-c3ccc(F)cc3)c3[nH]ccc23)C1` [Compound 9], the IC50 on NLRP3 inflammasome and in the experiment on IL-6 was no less than 10000 nM each time.
In the case of `CN1CCC[C@@H](Nc2nnc(-c3ccc(Cl)cc3)c3cc[nH]c23)C1` [Compound 10], the IC50 against NLRP3 inflammasome was 10 to 100 nM; in the experiment with IL-6, 1000 to 5000 nM.
Taken in the same sequence, the figures for `CN1CCC[C@@H](Nc2nnc(-c3ccc(Cl)cc3)c3[nH]ccc23)C1` [Compound 11] were 1000 to 10000 nM and no less than 10000 nM.
Turning to `CN1CCC[C@@H](Nc2nnc(-c3ccccc3C(F)F)c3cc[nH]c23)C1` [Compound 12], the IC50 at NLRP3 inflammasome was 100 to 500 nM; in the experiment with IL-6, no less than 10000 nM.
Taken in the same sequence, the figures for `CN1CCC[C@@H](Nc2nnc(-c3ccccc3C(F)F)c3[nH]ccc23)C1` [Compound 13] were no less than 10000 nM and no less than 10000 nM.
`CN1CCC[C@@H](Nc2nnc(-c3ccccc3O)c3cc[nH]c23)C1` [Compound 14] yielded an IC50 against NLRP3 inflammasome of less than 10 nM.
The same measure, in the same setting: the result for `CN1CCC[C@@H](Nc2nnc(-c3ccccc3)c3cc[nH]c23)C1` [Compound 15] reads 500 to 1000 nM.
For the compound `CN1CCC[C@@H](N(C)c2nnc(-c3ccccc3O)c3ccn(C)c23)C1` [Compound 18], the values for the IC50 against NLRP3 inflammasome and in the experiment on IL-6 were 1000 to 10000 nM and 1000 to 5000 nM, respectively.
Taken in the same sequence, the figures for `CN1C[C@H](Nc2nnc(-c3ccc(C(F)(F)F)cc3)c3cc[nH]c23)CC(F)(F)C1` [Compound 19] were 100 to 500 nM and 5000 to 10000 nM.
Taken in the same sequence, the figures for `CN1CCC[C@@H](Nc2nnc(-c3ccc(C(F)(F)F)cc3)c3nc[nH]c23)C1` [Compound 20] were 500 to 1000 nM and no less than 10000 nM.
Taken in the same sequence, the figures for `Cc1cc2c(-c3ccc(C(F)(F)F)cc3)nnc(N[C@@H]3CCCN(C)C3)c2[nH]1` [Compound 21] were less than 10 nM and no less than 10000 nM.
Consider `Cc1cc(-c2nnc(N[C@@H]3CCCN(C)C3)c3[nH]ccc23)ccc1C(F)(F)F` [Compound 23], for which the values for the half-maximal inhibitory concentration (IC50) against NLRP3 inflammasome and in the experiment on IL-6 were 1000 to 10000 nM and 5000 to 10000 nM, respectively.
In the case of `CN1CCC[C@@H](N(C)c2nnc(-c3ccc(C(F)(F)F)cc3)c3cc[nH]c23)C1` [Compound 25], the IC50 is 100 to 500 nM on NLRP3 inflammasome and no less than 10000 nM in the experiment on IL-6.
Taken in the same sequence, the figures for `CN1CCC[C@@H](Nc2nnc(-c3ccc(C(F)(F)F)cc3)c3ccn(C)c23)C1` [Compound 26] were 10 to 100 nM and 5000 to 10000 nM.
As for `CN1CCC[C@@H](N(C)c2nnc(-c3ccc(C(F)(F)F)cc3)c3ccn(C)c23)C1` [Compound 27, (R)—N,1-dimethyl-N-(1-methylpiperidin-3-yl)-4-(4-(trifluoromethyl)phenyl)-1H-pyrrolo[2,3-d]pyridazin-7-amine], the IC50 against NLRP3 inflammasome is 1000 to 10000 nM; with IL-6 it was no less than 10000 nM.
With `CN1CCC[C@@H](Nc2nnc(-c3ccc(C(F)(F)F)cc3)c3c2ncn3C)C1` [Compound 29], the figures for the IC50 on NLRP3 inflammasome and in the experiment on IL-6 were 500 to 1000 nM and no less than 10000 nM, respectively.
Taken in the same sequence, the figures for `CN1CCC[C@@H](Nc2nnc(-c3ccc(C(F)(F)F)cc3)c3ncn(C)c23)C1` [Compound 30] were 1000 to 10000 nM and no less than 10000 nM.
Consider `CN1CCC[C@@H](Nc2nnc(-c3ccc(C(F)(F)F)cc3)c3cnn(C)c23)C1` [Compound 31], for which the IC50 on NLRP3 inflammasome was 10 to 100 nM; with IL-6 it was no less than 10000 nM.
Taken in the same sequence, the figures for `CN1CCC[C@@H](Nc2nnc(-c3ccc(C(F)(F)F)cc3)c3c2cnn3C)C1` [Compound 32] were less than 10 nM and no less than 10000 nM.
Take `CN1CCC[C@@H](Oc2nnc(-c3ccc(C(F)(F)F)cc3)c3cc[nH]c23)C1` [Compound 39]: the IC50 against NLRP3 inflammasome fell in the range of 100 to 500 nM; with IL-6 it was 5000 to 10000 nM.
Taken in the same sequence, the figures for `CN1CCC[C@@H](Nc2nnc(-c3ccc(C(F)(F)F)cc3)c3ccoc23)C1` [Compound 53] were 10 to 100 nM and no less than 10000 nM.
`CN1CCC[C@@H](Nc2nnc(-c3ccc(C(F)(F)F)cc3)c3c2ccn3C)C1` [Compound 69]: at NLRP3 inflammasome, the IC50 lay in the range of 10 to 100 nM.
On the same count and under the same terms, the figure for `CN1CCC[C@@H](Nc2nnc(-c3ccccc3)c3[nH]ccc23)C1` [Compound 70] is no less than 10000 nM; for `CN1CCC[C@@H](Nc2nnc(-c3ncc(C#N)cc3O)c3cnn(C)c23)C1` [Compound 114] it is 10 to 100 nM; for `CN1CCC[C@@H](Nc2nnc(-c3ccc(C#N)cc3C(F)F)c3ccn(C)c23)C1` [Compound 120] it is 100 to 500 nM.
Turning to `CN1CCC[C@@H](Nc2nnc(-c3ccc(C(F)(F)F)cc3C(F)F)c3ccn(C)c23)C1` [Compound 122], the IC50 at NLRP3 inflammasome was less than 10 nM.
The same measure, in the same setting: the result for `Cc1cc(C#N)ccc1-c1nnc(N[C@@H]2CCCN(C)C2)c2c1ccn2C` [Compound 125] reads 10 to 100 nM; that for `CN1CCC[C@@H](Nc2nnc(-c3ncc(C#N)cc3O)c3ccn(C)c23)C1` [Compound 135], no less than 10000 nM; that for `CN1CCC[C@@H](Nc2nnc(-c3ncc(C#N)cc3Cl)c3cnn(C)c23)C1` [Compound 140], 1000 to 10000 nM.
Still for that read-out and setting: the figure for `N#Cc1ccc(-c2nnc(N[C@@H]3CCCN(CCF)C3)c3sncc23)c(O)c1` [Compound 150] is 10 to 100 nM.
